For 4 molecules, GI50 and mean GI50 results are on record in ChEMBL document CHEMBL1133062, “The synthesis and in vitro cytotoxic studies of novel bis-naphthalimidopropyl polyamine derivatives” (2000).

What all share (format): functional
One assay has as its system Melanoma cell. Briefly: The compound was tested for its growth inhibitory activity against melanoma, human cancer cell line.
In a further assay the test system is EKVX. Kind of assay: The compound was tested for its cytotoxic activity against the following non small cell lung cancer cell lines EKVX. To be noted: Homo sapiens.
A further assay has as its system Hs-578T. Briefly: The compound was tested for its cytotoxic activity against the following breast cancer cell lines HS 578T. To be noted: Homo sapiens.
For the next assay, the system named is 786-0. Briefly: The compound was tested for its cytotoxic activity against the following renal cancer cell lines 786-0. To be noted: Homo sapiens.
The next assay concerns SF-295. Kind of assay: The compound was tested for its cytotoxic activity against the following CNS cancer cell lines SF-295. The note with it: Homo sapiens.
A further assay has as its system Colon carcinoma cell. Briefly: The compound was tested for its growth inhibitory activity against colon cancer cell line. To be noted: Homo sapiens.
A further assay deals with NCI/ADR-RES. Kind of assay: The compound was tested for its cytotoxic activity against the following breast cancer cell lines NCI / ADR-RES. To be noted: Homo sapiens.
Another assay deals with SW-620. Kind of assay: The compound was tested for its cytotoxic activity against the following colon cancer cell lines SW-620. The note with it: Homo sapiens.
A short description of assay [1]: Mean value for over all cell lines tested.
A further assay deals with CNS carcinoma cell. Briefly: The compound was tested for its growth inhibitory activity against CNS cancer cell line. To be noted: Homo sapiens.
The next assay has as its system SF-268. Briefly: The compound was tested for its cytotoxic activity against the following CNS cancer cell lines SF-268. The note with it: Homo sapiens.
Assay [2] relates to Panel leukemia (Carcinoma cell lines). Kind of assay: The compound was tested for its growth inhibitory activity against leukemia cell line. The note with it: Homo sapiens.
A further assay relates to Renal cancer cell line. Kind of assay: The compound was tested for its growth inhibitory activity against renal cancer cell line. The note with it: Homo sapiens.
A further assay relates to SK-OV-3. Briefly: The compound was tested for its cytotoxic activity against the following ovarian cancer cell lines SK-OV-3. The note with it: Homo sapiens.
In a further assay the test system is HCT-15. Kind of assay: The compound was tested for its cytotoxic activity against the following colon cancer cell lines HCT-15. The note with it: Homo sapiens.
A further assay concerns IGROV-1. Kind of assay: The compound was tested for its cytotoxic activity against the following ovarian cancer cell lines IGROVI. To be noted: Homo sapiens.
The subject of another assay is UO-31. Kind of assay: The compound was tested for its cytotoxic activity against the following renal cancer cell lines UO-31. The note with it: Homo sapiens.
The test system of a further assay is HL-60. Kind of assay: The compound was tested for its growth inhibitory activity against […] cancer cell line HL60-TB. The note with it: Homo sapiens.
The subject of the next assay is Ovarian carcinoma cell. Briefly: The compound was tested for its growth inhibitory activity against ovarian cancer cell line. The note with it: Homo sapiens.
For a further assay, the system named is Lung cancer cell line. Kind of assay: The compound was tested for its growth inhibitory activity against non small cell lung cancer cell line. To be noted: Homo sapiens.
For the next assay, the system named is K562. Kind of assay: The compound was tested for its cytotoxicity against the following leukemia cell line K-562. To be noted: Homo sapiens.
The test system of another assay is NCI-H522. Kind of assay: The compound was tested for its cytotoxic activity against the following non small cell lung cancer cell lines NCI-H522. To be noted: Homo sapiens.
For a further assay, the system named is Breast carcinoma cell. Briefly: The compound was tested for its growth inhibitory activity against breast cancer cell line. The note with it: Homo sapiens.
Another assay has as its system Prostatic carcinoma cell. Briefly: The compound was tested for its growth inhibitory activity against prostate cancer cell line. To be noted: Homo sapiens.

The structures appear in SMILES notation.

Usually GI50 stands for the concentration that inhibits growth by half. Higher therefore signals less potent growth inhibition.

With `Br.Br.Br.O=C1c2cccc3cccc(c23)C(=O)N1CCCNCCCCNCCCNCCCN1C(=O)c2cccc3cccc(c23)C1=O`, the GI50 in the assay with Melanoma cell was found to be 1170 nM; with EKVX, 1050 nM; in the assay on Hs-578T, 44 nM; in the assay with 786-0 it was 185 nM; in the assay on SF-295 it was 4780 nM; in the assay with Colon carcinoma cell, 2350 nM. For the same molecule, the GI50 turned out to be 19500 nM in the assay on NCI/ADR-RES; 449 nM in the assay on SW-620; 1160 nM in the assay on CNS carcinoma cell; 111 nM in the assay on SF-268; 250 nM in assay [2]; 2490 nM in the assay on Renal cancer cell line. Also, the GI50 with SK-OV-3 turned out to be 1310 nM; in the assay on HCT-15, 10900 nM; in the assay with IGROV-1, 267 nM; in the assay on UO-31 it was 10600 nM; with HL-60, 156 nM; in the assay with Ovarian carcinoma cell it was 790 nM. For the same molecule, the GI50 came to 580 nM in the assay with Lung cancer cell line; 1170 nM in the assay on K562; 30 nM with NCI-H522; 3490 nM with Breast carcinoma cell; 460 nM in the assay on Prostatic carcinoma cell. For the same molecule, the mean GI50 in [1] turned out to be 1420 nM.
`Br.Br.Br.Br.O=C1c2cccc3cccc(c23)C(=O)N1CCCNCCCNCCCCNCCCNCCCN1C(=O)c2cccc3cccc(c23)C1=O`: the GI50 with Melanoma cell was found to be 4040 nM; with EKVX, 4500 nM; in the assay with Hs-578T, 630 nM; in the assay on 786-0 it was 555 nM; in the assay with SF-295, 5350 nM; in the assay on Colon carcinoma cell, 4230 nM. For the same molecule, the GI50 in the assay on NCI/ADR-RES came to 15100 nM; with SW-620, 1160 nM; in the assay on CNS carcinoma cell, 4070 nM; in the assay with SF-268 it was 722 nM; in [2] it was 1430 nM; in the assay with Renal cancer cell line, 7430 nM. Moreover, the GI50 in the assay on SK-OV-3 was 10800 nM; with HCT-15 it was 12800 nM; in the assay with IGROV-1, 856 nM; in the assay on UO-31, 10800 nM; with HL-60, 33 nM; with Ovarian carcinoma cell, 6120 nM. In addition, the GI50 is 3510 nM in the assay on Lung cancer cell line; 3600 nM with K562; 825 nM in the assay with NCI-H522; 4490 nM with Breast carcinoma cell; 3460 nM in the assay with Prostatic carcinoma cell. In assay [1], this molecule showed a mean GI50 of 4310 nM.
In the case of `Br.Br.O=C1c2cccc3cccc(c23)C(=O)N1CCCNCCCCNCCCN1C(=O)c2cccc3cccc(c23)C1=O`, the GI50 in the assay on Melanoma cell worked out at 440 nM; in the assay with EKVX, 1370 nM; in the assay with Hs-578T, 65 nM; in the assay on 786-0 it was 24 nM; with SF-295 it was 488 nM; in the assay on Colon carcinoma cell, 590 nM. Also, the GI50 came out at 13100 nM with NCI/ADR-RES; 37 nM with SW-620; 290 nM in the assay on CNS carcinoma cell; 29 nM in the assay on SF-268; 80 nM in [2]; 570 nM with Renal cancer cell line. In addition, the GI50 was determined as 722 nM with SK-OV-3; 2660 nM with HCT-15; 82 nM in the assay with IGROV-1; 1910 nM in the assay with UO-31; 222 nM in the assay with HL-60; 340 nM with Ovarian carcinoma cell. The GI50 was 530 nM in the assay on Lung cancer cell line; 12 nM with K562; 13 nM with NCI-H522; 2260 nM in the assay on Breast carcinoma cell; 130 nM in the assay on Prostatic carcinoma cell. Also, in [1], the mean GI50 worked out at 580 nM.
Consider `Br.Br.O=C1c2cccc3cccc(c23)C(=O)N1CCCNOCCONCCCN1C(=O)c2cccc3cccc(c23)C1=O`, for which the GI50 with Melanoma cell turned out to be 78000 nM; in the assay with Colon carcinoma cell it was 73200 nM; in the assay with CNS carcinoma cell, 65900 nM; in [2], 25700 nM; in the assay on Renal cancer cell line, 65400 nM; with Ovarian carcinoma cell, 81000 nM. Moreover, the GI50 is 72600 nM in the assay on Lung cancer cell line, 77600 nM in the assay on Breast carcinoma cell and 77600 nM in the assay with Prostatic carcinoma cell. In addition, the mean GI50 in assay [1] came out at 68600 nM.
